Experimental data from paper PMC11073699, “Odorant receptors for floral- and plant-derived volatiles in the yellow fever mosquito, Aedes aegypti (Diptera: Culicidae)” (PLOS ONE, 2024).
Where “and” joins values, the source holds several entries; their conditions need not be identical. Identical values can stand only once.

Tests used:
Type in all cases: cell-based
AaegOR6 = target: T1, AaegOR6 (Aedes aegypti, UniProt A0A1S4G757); test: Two-electrode voltage clamp of Xenopus laevis oocytes expressing AaegOR6/Orco (blends, unitary compounds, concentration-response); conditions: Indoles 2 unitary compounds
T1 sequence (A0A1S4G757 1-398): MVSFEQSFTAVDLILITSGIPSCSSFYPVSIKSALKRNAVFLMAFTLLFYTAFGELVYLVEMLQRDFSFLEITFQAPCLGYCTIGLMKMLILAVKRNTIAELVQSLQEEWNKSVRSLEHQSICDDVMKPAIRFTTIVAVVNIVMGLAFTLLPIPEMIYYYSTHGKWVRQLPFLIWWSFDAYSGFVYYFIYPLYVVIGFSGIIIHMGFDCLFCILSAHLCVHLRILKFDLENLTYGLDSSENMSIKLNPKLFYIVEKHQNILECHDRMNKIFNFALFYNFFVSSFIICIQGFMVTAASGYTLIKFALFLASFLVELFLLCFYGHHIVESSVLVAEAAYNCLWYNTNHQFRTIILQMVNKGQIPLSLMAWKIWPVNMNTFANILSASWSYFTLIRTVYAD
T1 sequence (Q178U6 1-478 partner): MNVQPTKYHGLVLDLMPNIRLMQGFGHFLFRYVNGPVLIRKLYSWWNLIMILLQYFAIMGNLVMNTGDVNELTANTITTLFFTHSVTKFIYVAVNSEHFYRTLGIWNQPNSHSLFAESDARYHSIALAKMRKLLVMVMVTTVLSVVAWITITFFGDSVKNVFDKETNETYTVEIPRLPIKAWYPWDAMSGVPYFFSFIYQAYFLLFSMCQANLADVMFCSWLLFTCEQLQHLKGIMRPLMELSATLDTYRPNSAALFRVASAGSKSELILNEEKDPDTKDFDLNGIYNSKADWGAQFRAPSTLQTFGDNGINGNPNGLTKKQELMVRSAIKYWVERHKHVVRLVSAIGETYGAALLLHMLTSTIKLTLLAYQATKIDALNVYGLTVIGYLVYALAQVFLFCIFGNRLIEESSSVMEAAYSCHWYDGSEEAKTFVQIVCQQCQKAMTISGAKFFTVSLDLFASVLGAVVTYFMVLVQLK
Source text: (§1) The coding regions of ten AaegOR genes of interest (S3 File) and AaegOrco were synthesized by Twist Bioscience (San Francisco, CA, USA) and cloned into the pENTR plasmid. The Gateway LR directional cloning system (Invitrogen Corp., Carlsbad, CA, USA) was utilized to subclone AaegOR coding regions into the pSP64t-RFA oocyte expression plasmid. Plasmids were purified using the GeneJet Plasmid Miniprep Kit (ThermoFisher Scientific, Waltham, MA, USA). Purified plasmids were sequenced in both directions to confirm coding regions.
(§2) Chemical compounds (S6 File) used in the deorphanization of AaegORs were purchased from Acros Organics (Morris, NJ, USA), Alfa Aesar (Ward Hill, MA, USA), and ThermoFisher Scientific (Waltham, MA, USA) at the highest purity available. Compounds were stored as 1M stocks in 100% DMSO. Serial dilutions of each compound were prepared in 10% DMSO and blended by chemical class.
(§3) pSP64t-RFA: AaegOR clones were linearized using Xbal, and cRNAs were synthesized using the mMESSAGE mMACHINE ® SP6 kit (Life Technologies, Carlsbad, CA, USA). Xenopus laevis stage V-VII oocytes purchased from Xenopus1 (Dexter, MI, USA) were stored at 18°C in Incubation medium (ND96 96 with 5% dialyzed horse serum, 50μg/mL gentamycin, 100μg/mL streptomycin, 100μg/mL penicillin, and 550μg/mL sodium pyruvate). 30nL of cRNA was injected into multiple oocytes using a microinjection syringe pump (World Precision Instruments, Sarasota, FL, USA) maintained at 18°C for 48–72 hrs. Odorant blends were perfused across individual oocytes for 10–15 seconds, held at a resting membrane potential of -80 mV using an OC-725C oocyte clamp (Warner Instruments, LLC, Hamden, CT, USA). Induced currents were measured indirectly using the two-electrode voltage clamp technique (TEVC). Following each stimulus, currents were allowed to return to baseline before further stimulation. Data was captured using the Digidata 1550 B digitizer and PClamp10 software (Molecular Devices, San Jose, CA, USA). Concentration-response curves were generated by perfusing unitary odorants over oocytes at increasing concentrations from [10^-3M] to [10^-9M]. Data were analyzed using GraphPad Prism 8 (GraphPad Software Inc., La Jolla, CA, USA). At least two biological replicates were conducted at each concentration and for each compound. Data for at least seven oocytes responding to each compound was analyzed (S7 File).

AaegOR71 = target: T2, AaegOR71 (Aedes aegypti, UniProt A0A3S7SHD4); test: Two-electrode voltage clamp of Xenopus laevis oocytes expressing AaegOR71/Orco (blends, unitary compounds, concentration-response); conditions: Indoles 2 unitary compounds
T2 sequence (A0A3S7SHD4 1-415): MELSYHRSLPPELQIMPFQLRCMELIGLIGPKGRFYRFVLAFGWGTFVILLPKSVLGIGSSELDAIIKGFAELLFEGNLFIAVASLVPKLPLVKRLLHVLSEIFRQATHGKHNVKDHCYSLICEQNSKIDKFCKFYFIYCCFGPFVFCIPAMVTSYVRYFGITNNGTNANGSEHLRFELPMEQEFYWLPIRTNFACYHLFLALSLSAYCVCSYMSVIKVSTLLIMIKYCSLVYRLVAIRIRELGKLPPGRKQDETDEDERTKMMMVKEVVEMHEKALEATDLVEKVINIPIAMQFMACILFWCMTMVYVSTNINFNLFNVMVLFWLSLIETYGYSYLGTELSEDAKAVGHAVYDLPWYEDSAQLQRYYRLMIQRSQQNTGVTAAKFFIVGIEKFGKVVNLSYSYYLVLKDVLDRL
T2 sequence (Q178U6 1-478 partner): T1 sequence (Q178U6 1-478 partner)
Source text: as §1, §2, §3

AaegOR13 = target: T3, AaegOR13 (Aedes aegypti, UniProt Q16Z13); test: Two-electrode voltage clamp of Xenopus laevis oocytes expressing AaegOR13/Orco (blends, unitary compounds, concentration-response); conditions: unitary compounds; individual oocytes 1-7
T3 sequence (Q16Z13 1-389): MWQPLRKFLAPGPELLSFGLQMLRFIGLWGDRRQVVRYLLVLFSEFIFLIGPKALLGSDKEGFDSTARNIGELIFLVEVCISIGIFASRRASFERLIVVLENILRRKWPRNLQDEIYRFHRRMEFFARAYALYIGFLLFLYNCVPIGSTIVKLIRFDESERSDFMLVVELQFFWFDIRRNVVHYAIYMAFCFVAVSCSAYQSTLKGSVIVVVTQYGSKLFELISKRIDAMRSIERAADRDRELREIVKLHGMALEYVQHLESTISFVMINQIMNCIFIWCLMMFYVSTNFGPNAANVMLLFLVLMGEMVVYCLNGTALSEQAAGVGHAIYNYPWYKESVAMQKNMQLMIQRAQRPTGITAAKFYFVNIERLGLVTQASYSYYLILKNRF
T3 sequence (Q178U6 1-478 partner): T1 sequence (Q178U6 1-478 partner)
Source text: as §1, §2, §3

SMILES	Raw data (Responses in nA) Oocyte 1 (AaegOR6) [nA]	Raw data (Responses in nA) Oocyte 2 (AaegOR6) [nA]	Raw data (Responses in nA) Oocyte 3 (AaegOR6) [nA]	Raw data (Responses in nA) Oocyte 4 (AaegOR6) [nA]	Raw data (Responses in nA) Oocyte 5 (AaegOR6) [nA]	Raw data (Responses in nA) Oocyte 6 (AaegOR6) [nA]	Raw data (Responses in nA) Oocyte 7 (AaegOR6) [nA]	Raw data (Responses in nA) Oocyte 8 (AaegOR6) [nA]	Raw Data (Response in nA) Oocyte 1 (AaegOR71) [nA]	Raw Data (Response in nA) Oocyte 2 (AaegOR71) [nA]	Raw Data (Response in nA) Oocyte 3 (AaegOR71) [nA]	Raw Data (Response in nA) Oocyte 4 (AaegOR71) [nA]	Raw Data (Response in nA) Oocyte 5 (AaegOR71) [nA]	Raw Data (Response in nA) Oocyte 6 (AaegOR71) [nA]	Raw Data (Response in nA) Oocyte 7 (AaegOR71) [nA]	Raw Data (Response in nA) Oocyte 8 (AaegOR71) [nA]	Raw data (Responses in nA), unitary compounds of Indoles 1, Alcohols 1, Alcohols 3 (AaegOR13)
O=C1Cc2ccccc2N1 [Oxindole]	0.0	0.0	0.0	0.0	0.0	0.0	0.0	10.0	0	20	0	10	0	10	5	20	
c1ccc2ncncc2c1 [Quinazoline]	0.0	0.0	0.0	0.0	0.0	10.0	0.0	0.0	70	440	45	250	40	150	50	40	
c1ccc2ncccc2c1 [Quinoline]	0.0	0.0	0.0	0.0	0.0	10.0	10.0	0.0	900	2210	330	1050	300	760	210	250	
c1ccc2nccnc2c1 [Quinoxaline]	0.0	0.0	0.0	0.0	0.0	0.0	0.0	0.0	0	620	85	370	60	200	80	70	
O=Cc1c[nH]c2ccccc12 [indole-3-carboxyaldehyde]																	0.0 nA (2×) and 5.0 nA (5×)
